Experimental data taken from article PMC11672637, “7-O-Carboxylic Acid-Substituted 3-O-Alkyl Difluoroquercetin; An Aztreonam-Potentiating Agent Against Carbapenemase-Producing Pseudomonas aeruginosa Through Simultaneous Inhibition of Metallo-β-Lactamase and Efflux Pump” (Antibiotics, 2024).
Like-named read-outs stand apart in the source and are kept apart here.

How the values were obtained:
Format in all cases: cell-based, P. aeruginosa
PA-021, blaIMP = assay: MIC / checkerboard with ATM; conditions: for MIC: Pseudomonas aeruginosa, read-out: MIC of ATM with 5, PA-021
PA-040, blaNDM = assay: MIC / checkerboard with ATM; conditions: for MIC: Pseudomonas aeruginosa, read-out: MIC of ATM with 5, PA-040
PA-038, blaNDM = assay: MIC / checkerboard with ATM; conditions: for MIC: Pseudomonas aeruginosa, read-out: MIC of ATM with 5, PA-038
PA-044, blaNDM = assay: MIC / checkerboard with ATM; conditions: for MIC: Pseudomonas aeruginosa, read-out: MIC of ATM with 5, PA-044
PA-042, blaIMP/NDM = assay: MIC / checkerboard with ATM; conditions: for MIC: Pseudomonas aeruginosa, read-out: MIC of ATM with 5, PA-042
PA-009, blaGES = assay: MIC / checkerboard with ATM; conditions: for MIC: Pseudomonas aeruginosa, read-out: MIC of ATM with 5, PA-009
[1] = tested on: ATM-Resistant CPPA (n = 15); assay: MIC distribution over clinical isolates; conditions: for inhibition at 1 µg/mL: read-out: Cumulative % inhibition by ATM, 5 at 1 mg/L; for inhibition at 2 µg/mL: read-out: Cumulative % inhibition by ATM, 5 at 2 mg/L
[2] = Pseudomonas aeruginosa, ATM 0.5 mg/L
[3] = Pseudomonas aeruginosa, ATM 1 mg/L
[4] = Pseudomonas aeruginosa, ATM 2 mg/L
[5] = Pseudomonas aeruginosa, ATM 4 mg/L
[6] = Pseudomonas aeruginosa, ATM 8 mg/L
[7] = Pseudomonas aeruginosa, ATM 16 mg/L
[8] = Pseudomonas aeruginosa, ATM 32 mg/L
[9] = Pseudomonas aeruginosa, ATM 64 mg/L

CC(C)(C)CCOc1c(-c2ccc(F)c(F)c2)oc2cc(OCC(=O)O)cc(O)c2c1=O [Compound 5, 2-((2-(3,4-Difluorophenyl)-3-(3,3-dimethylbutoxy)-5-hydroxy-4-oxo-4H-chromen-7-yl)oxy)acetic Acid]
4: FD (fold decrease in MIC of ATM with 5) (PA-040, blaNDM; PA-040, lowest-FICI combination) | FD (fold decrease in MIC of ATM with 5) (PA-038, blaNDM; PA-038, lowest-FICI combination) | FD (fold decrease in MIC of ATM with 5) (PA-044, blaNDM; PA-044, lowest-FICI combination) | FD (fold decrease in MIC of ATM with 5) (PA-009, blaGES; PA-009, lowest-FICI combination)
0.28: Lowest FICI (ATM/5) (PA-009, blaGES; PA-009)
14 out of 15: ATM-non-susceptible pathogens (MIC ≥ 16 mg/L) converted into sensitive ones by combination with 5 [1]
0.51: Lowest FICI (ATM/5) (PA-042, blaIMP/NDM; PA-042)
0.50: Lowest FICI (ATM/5) (PA-021, blaIMP; PA-021)
32 µg/mL: MIC (PA-009, blaGES; 5 at 1 mg/L)
0.31: Lowest FICI (ATM/5) (PA-040, blaNDM; PA-040)
0%: inhibition at 1 µg/mL [1, 2] | inhibition at 1 µg/mL [1, 3] | inhibition at 1 µg/mL [1, 4] | inhibition at 1 µg/mL [1, 5] | inhibition at 2 µg/mL [1, 2] | inhibition at 2 µg/mL [1, 3] | inhibition at 2 µg/mL [1, 4] | inhibition at 2 µg/mL [1, 5] | inhibition at 4 µg/mL ([1]; Pseudomonas aeruginosa, read-out: Cumulative % inhibition by ATM, 5 at 4 mg/L, ATM 0.5 mg/L)
4/8: Concentrations of ATM and 5 at lowest FICI (ATM/5) (PA-038, blaNDM; PA-038) | Concentrations of ATM and 5 at lowest FICI (ATM/5) (PA-044, blaNDM; PA-044)
100%: inhibition at 1 µg/mL [1, 8] | inhibition at 1 µg/mL [1, 9] | inhibition at 2 µg/mL [1, 8] | inhibition at 2 µg/mL [1, 9]
1 µg/mL: MIC (PA-021, blaIMP; 5 at 1 mg/L) | MIC (PA-040, blaNDM; 5 at 32 mg/L) | MIC (PA-040, blaNDM; 5 at 64 mg/L) | MIC (PA-042, blaIMP/NDM; 5 at 4 mg/L) | MIC (PA-042, blaIMP/NDM; 5 at 8 mg/L) | MIC (PA-042, blaIMP/NDM; 5 at 16 mg/L) | MIC (PA-042, blaIMP/NDM; 5 at 32 mg/L) | MIC (PA-042, blaIMP/NDM; 5 at 64 mg/L)
4 µg/mL: MIC (PA-040, blaNDM; 5 at 1 mg/L) | MIC (PA-040, blaNDM; 5 at 2 mg/L) | MIC (PA-038, blaNDM; 5 at 8 mg/L) | MIC (PA-038, blaNDM; 5 at 16 mg/L) | MIC (PA-038, blaNDM; 5 at 32 mg/L) | MIC (PA-038, blaNDM; 5 at 64 mg/L) | MIC (PA-044, blaNDM; 5 at 8 mg/L) | MIC (PA-044, blaNDM; 5 at 16 mg/L) | MIC (PA-044, blaNDM; 5 at 32 mg/L) | MIC (PA-044, blaNDM; 5 at 64 mg/L) | MIC (PA-009, blaGES; 5 at 32 mg/L) | MIC (PA-009, blaGES; 5 at 64 mg/L)
2: FD (fold decrease in MIC of ATM with 5) (PA-021, blaIMP; PA-021, lowest-FICI combination) | FD (fold decrease in MIC of ATM with 5) (PA-042, blaIMP/NDM; PA-042, lowest-FICI combination)
S (S (Synergy, FICI ≤ 0.5)): Activity (FICI class) (PA-040, blaNDM; PA-040) | Activity (FICI class) (PA-038, blaNDM; PA-038) | Activity (FICI class) (PA-044, blaNDM; PA-044) | Activity (FICI class) (PA-009, blaGES; PA-009)
8/8: Concentrations of ATM and 5 at lowest FICI (ATM/5) (PA-009, blaGES; PA-009)
S (S (sensitive, MIC ≤ 8 mg/L)): Susceptibility to ATM (PA-021, blaIMP; PA-021, ATM/5) | Susceptibility to ATM (PA-040, blaNDM; PA-040, ATM/5) | Susceptibility to ATM (PA-038, blaNDM; PA-038, ATM/5) | Susceptibility to ATM (PA-044, blaNDM; PA-044, ATM/5) | Susceptibility to ATM (PA-042, blaIMP/NDM; PA-042, ATM/5) | Susceptibility to ATM (PA-009, blaGES; PA-009, ATM/5)
8 µg/mL: MIC (PA-038, blaNDM; 5 at 4 mg/L) | MIC (PA-044, blaNDM; 5 at 4 mg/L) | MIC (PA-009, blaGES; 5 at 8 mg/L) | MIC (PA-009, blaGES; 5 at 16 mg/L)
2 µg/mL: MIC (PA-040, blaNDM; 5 at 4 mg/L) | MIC (PA-040, blaNDM; 5 at 8 mg/L) | MIC (PA-040, blaNDM; 5 at 16 mg/L) | MIC (PA-042, blaIMP/NDM; 5 at 1 mg/L) | MIC (PA-042, blaIMP/NDM; 5 at 2 mg/L)
7%: inhibition at 1 µg/mL [1, 6] | inhibition at 2 µg/mL [1, 6]
4 mg/L: Minimum concentration of 5 to make sensitive to ATM (PA-038, blaNDM; PA-038) | Minimum concentration of 5 to make sensitive to ATM (PA-044, blaNDM; PA-044)
I (I (indifference, 0.5 < FICI ≤ 4)): Activity (FICI class) (PA-021, blaIMP; PA-021) | Activity (FICI class) (PA-042, blaIMP/NDM; PA-042)
16 µg/mL: MIC (PA-038, blaNDM; 5 at 1 mg/L) | MIC (PA-038, blaNDM; 5 at 2 mg/L) | MIC (PA-044, blaNDM; 5 at 1 mg/L) | MIC (PA-044, blaNDM; 5 at 2 mg/L) | MIC (PA-009, blaGES; 5 at 2 mg/L) | MIC (PA-009, blaGES; 5 at 4 mg/L)
0.27: Lowest FICI (ATM/5) (PA-038, blaNDM; PA-038) | Lowest FICI (ATM/5) (PA-044, blaNDM; PA-044)
0.5 µg/mL: MIC (PA-021, blaIMP; 5 at 2 mg/L) | MIC (PA-021, blaIMP; 5 at 4 mg/L) | MIC (PA-021, blaIMP; 5 at 8 mg/L) | MIC (PA-021, blaIMP; 5 at 16 mg/L) | MIC (PA-021, blaIMP; 5 at 32 mg/L) | MIC (PA-021, blaIMP; 5 at 64 mg/L)
67%: inhibition at 1 µg/mL [1, 7]
87%: inhibition at 2 µg/mL [1, 7]
8 mg/L: Minimum concentration of 5 to make sensitive to ATM (PA-009, blaGES; PA-009)
1/4: Concentrations of ATM and 5 at lowest FICI (ATM/5) (PA-042, blaIMP/NDM; PA-042)
1/32: Concentrations of ATM and 5 at lowest FICI (ATM/5) (PA-040, blaNDM; PA-040)
